Test results reported in patent US5140009A (Tap Pharmaceuticals, Inc., priority 1990, dated 1992).
Like-named read-outs stand apart in the source and are kept apart here. Numbered stars: 1 amine (or outer) side, 2 acyl side, 3 side chain; on linkers, the order of the positions; unused ones are H or OH. Square brackets hold non-standard residues; d marks the D form. Peptide text beside a SMILES is read from it. * marks the point of attachment. Propanoyl(3-(4-F-phenyl)) = O=C(CCc1ccc(F)cc1)*; 1Nal = N[C@@H](Cc1cccc2ccccc12)C(=O)O; d1Nal = N[C@H](Cc1cccc2ccccc12)C(=O)O; Lys(iPr) = CC(C)NCCCC[C@H](N)C(=O)O; NMeY = CN[C@@H](Cc1ccc(O)cc1)C(=O)O; dBta = N[C@H](Cc1csc2ccccc12)C(=O)O; Pyrazinecarbonyl = O=C(c1cnccn1)*; d2Thi = N[C@H](Cc1cccs1)C(=O)O; dCha = N[C@H](CC1CCCCC1)C(=O)O; NHPhenethyl = c1ccc(CCN*)cc1; Nicotinoyl = O=C(c1cccnc1)*; Morpholide = C1CN(*)CCO1; CO = O=C([*:1])[*:2]; Sar = CNCC(=O)O

What was measured:
[1] = target: T1, LHRH receptors (Rattus norvegicus, UniProt P30969); test: Receptor Binding (radioligand receptor binding assay); settings: table 4, rat pituitary membranes, radioligand 50 pM, 2 hours at 4° C.
T1 construct: Pituitary membranes containing LHRH receptors are prepared in batches from quick-frozen rat pituitaries; tissue Hilltop Labs; host or cells: rat pituitary membranes
T1 sequence (P30969 1-327): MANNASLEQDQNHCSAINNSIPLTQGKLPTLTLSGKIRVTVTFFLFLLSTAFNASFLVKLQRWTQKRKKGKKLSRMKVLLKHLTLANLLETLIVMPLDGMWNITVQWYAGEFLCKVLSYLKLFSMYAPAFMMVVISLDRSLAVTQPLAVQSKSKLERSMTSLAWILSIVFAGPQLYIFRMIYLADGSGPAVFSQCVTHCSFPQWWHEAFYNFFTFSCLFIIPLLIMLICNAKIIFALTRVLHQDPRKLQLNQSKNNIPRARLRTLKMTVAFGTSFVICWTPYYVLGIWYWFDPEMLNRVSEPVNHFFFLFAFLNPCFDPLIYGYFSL

[2] = system: male castrate rats; test: In vivo LH Inhibiton; parameters: species or system rat; settings: table 4, 30 ug/kg subcutaneously by bolus injection, AUC of log (LHt /LHi)
Method: (c) In vivo LH Inhibiton. The compound to be tested is administered at 30 ug/kg subcutaneously by bolus injection to male castrate rats and blood samples are collected periodically over 24 hours. The AUC (area under the curve) of the LH suppression data as a function of time is calculated using the formula log (LHt /LHi) wherein LHt is the LH concentration in the blood at time t and LHi is the initial baseline LH concentration in the blood. The AUC values are negative numbers.

[3] = read-out: Receptor Binding pkI (converted)

Row | Compound | Ki [1, 3] | AUC (24 hr. after 30 ug/kg) [2] | Ki ([1]; Receptor Binding pkI)
1 | CC(C)C[C@H](NC(=O)[C@@H](CCCCN)NC(=O)[C@H](Cc1ccc(O)cc1)N(C)C(=O)[C@H](CO)NC(=O)[C@@H](Cc1csc2ccccc12)NC(=O)CCc1ccc(F)cc1)C(=O)N[C@@H](CCCNC(=N)N)C(=O)N1CCC[C@H]1C(=O)N[C@H](C)C(N)=O [Compound 177, (3-10)[N-(3-(4-Fluorophenyl)propionyl)-D-3-Bal^3 -NMeTyr^5 -D-Lys^6 -D-Ala^10]LHRH] ({Propanoyl(3-(4-F-phenyl))}-[dBta]S[NMeY][dK]LRP[dA]-NH2) | 0.00589 nM | -938 | 
2 | CC(C)C[C@H](NC(=O)[C@@H](Cc1c[nH]c2ccccc12)NC(=O)[C@H](Cc1ccc(O)cc1)N(C)C(=O)[C@H](CO)NC(=O)[C@@H](Cc1c[nH]c2ccccc12)NC(=O)[C@@H](Cc1ccccc1)NC(=O)NCCc1ccccc1)C(=O)N[C@@H](CCCNC(=N)N)C(=O)N1CCC[C@H]1C(=O)N[C@H](C)C(N)=O [Compound 234, N-(alpha-Phenethylaminocarbonyl)-D-Phe-D-Trp-Ser-NMeTyr-D-Trp-Leu-Arg-Pro-D-AlaNH2] ({NHPhenethyl-CO}-[dF][dW]S[NMeY][dW]LRP[dA]-NH2) |  |  | 0.398 nM
3 | CC(C)C[C@H](NC(=O)[C@@H](CCCCNC(=O)c1cccnc1)NC(=O)[C@H](Cc1ccc(O)cc1)N(C)C(=O)[C@H](CO)NC(=O)[C@@H](Cc1csc2ccccc12)NC(=O)CCc1ccc(F)cc1)C(=O)N[C@@H](CCCCNC(C)C)C(=O)N1CCC[C@H]1C(=O)N[C@H](C)C(N)=O [Compound 253, (3-10)[N-(3-(4-Fluorophenyl)propionyl)-D-3-Bal^3 -NMeTyr^5 -D-Lys^6 (N-epsilon-nicotinyl)-Lys^8 (N-epsilon-isopropyl)-D-Ala^10]LHRH] ({Propanoyl(3-(4-F-phenyl))}-[dBta]S[NMeY][dK](Nicotinoyl)L[Lys(iPr)]P[dA]-NH2) | 0.00933 nM |  | 
4 | CC(C)C[C@H](NC(=O)[C@@H](CCCCNC(=O)c1cccnc1)NC(=O)[C@H](Cc1ccc(O)cc1)N(C)C(=O)[C@H](CO)NC(=O)[C@@H](CC1CCCCC1)NC(=O)CCc1ccc(F)cc1)C(=O)N[C@@H](CCCCNC(C)C)C(=O)N1CCC[C@H]1C(=O)N[C@H](C)C(N)=O [Compound 254, (3-10)[N-(3-(4-Fluorophenyl)propionyl)-D-Cha^3 -NMeTyr^5 -D-Lys^6 (N-epsilon-nicotinyl)-Lys^8 (N-epsilon-isopropyl)-D-Ala^10]LHRH] ({Propanoyl(3-(4-F-phenyl))}-[dCha]S[NMeY][dK](Nicotinoyl)L[Lys(iPr)]P[dA]-NH2) | 0.012 nM |  | 
5 | (3-10)[N-(3-(4-Fluorophenyl)propionyl)-D-1-Nal^3 -D-Lys^6 (N-epsilon-4-methoxybenzoyl)-Lys^8 (N-epsilon-isopropyl)-D-Ala^10 ]LHRH [Compound 206] |  | -412 | 
6 | (3-10)[N-(3-(4-Fluorophenyl)propionyl)-D-Thia^3 -NMeTyr^5 -D-Lys^6 -D-Ala^ ]LHRH [Compound 166] |  | -208 | 
7 | (3-10)[N-(3-(4-Fluorophenyl)propionyl)-D-Trp^3 -NMeTyr^5 -D-Lys^6 (N-epsilon-nicotinyl)-D-Ala^10 ]LHRH [Compound 163] |  | -361 | 

More lines, main results first:

Row | Ki [1, 3] | Compound | AUC (24 hr. after 30 ug/kg) [2] | Ki ([1]; Receptor Binding pkI)
8 | 0.0234 nM | CC(C)C[C@H](NC(=O)[C@@H](CCCCNC(=O)c1cccnc1)NC(=O)[C@H](Cc1ccc(O)cc1)N(C)C(=O)[C@H](CO)NC(=O)[C@@H](Cc1c[nH]c2ccccc12)NC(=O)CCc1ccc(F)cc1)C(=O)N[C@@H](CCCCNC(C)C)C(=O)N1CCC[C@H]1C(=O)N[C@H](C)C(N)=O [Compound 195, (3-10)[N-(3-(4-Fluorophenyl)propionyl)-D-Trp^3 -NMeTyr^5 -D-Lys^6 (N-epsilon-nicotinyl)-Lys^8 (N-epsilon-isopropyl)-D-Ala^10]LHRH] ({Propanoyl(3-(4-F-phenyl))}-[dW]S[NMeY][dK](Nicotinoyl)L[Lys(iPr)]P[dA]-NH2) | -158 | 
9 | 0.0112 nM | CC(C)C[C@H](NC(=O)[C@@H](CCCCNC(=O)c1cccnc1)NC(=O)[C@H](Cc1ccc(O)cc1)N(C)C(=O)[C@H](CO)NC(=O)[C@@H](Cc1cccc2ccccc12)NC(=O)CCc1ccc(F)cc1)C(=O)N[C@@H](CCCCNC(C)C)C(=O)N1CCC[C@H]1C(=O)N[C@H](C)C(N)=O [Compound 197, (3-10)[N-(3-(4-Fluorophenyl)propionyl)-D-1-Nal^3 -NMeTyr^5 -D-Lys^6 (N-epsilon-nicotinyl)-Lys^8 (N-epsilon-isopropyl)-D-Ala^10]LHRH] ({Propanoyl(3-(4-F-phenyl))}-[d1Nal]S[NMeY][dK](Nicotinoyl)L[Lys(iPr)]P[dA]-NH2) | -688 | 
10 | 0.00288 nM | CC(C)C[C@H](NC(=O)[C@@H](CCCCNC(=O)c1cnccn1)NC(=O)[C@H](Cc1ccc(O)cc1)N(C)C(=O)[C@H](CO)NC(=O)[C@@H](Cc1cccc2ccccc12)NC(=O)CCc1ccc(F)cc1)C(=O)N[C@@H](CCCCNC(C)C)C(=O)N1CCC[C@H]1C(=O)N[C@H](C)C(N)=O [Compound 207, (3-10)[N-(3-(4-Fluorophenyl)propionyl)-D-1-Nal^3 -NMeTyr^5 -D-Lys^6 (N-epsilon-2-pyrazinyecarbonyl)-Lys^8 (N-epsilon-isopropyl)-D-Ala^10]LHRH] ({Propanoyl(3-(4-F-phenyl))}-[d1Nal]S[NMeY][dK](Pyrazinecarbonyl)L[Lys(iPr)]P[dA]-NH2) | -412 | 
11 | 0.708 nM | CCNC(=O)[C@@H]1CCCN1C(=O)[C@H](CCCNC(=N)N)NC(=O)[C@H](CC(C)C)NC(=O)[C@@H](Cc1c[nH]c2ccccc12)NC(=O)[C@H](Cc1ccc(O)cc1)NC(=O)[C@H](CO)NC(=O)[C@@H](Cc1cccs1)NC(=O)[C@H](Cc1ccccc1)NC(=O)N1CCOCC1 [Compound 236, (2-9)[N-(alpha-Morpholinocarbonyl)-Phe^2 -D-Thia^3 -D-Trp^6 -Pro^9 NHEt]LHRH] ({Morpholide-CO}-F[d2Thi]SY[dW]LRP-NHEt) |  | 
12 | 0.0355 nM | CCNC(=O)[C@@H]1CCCN1C(=O)[C@H](CCCNC(=N)N)NC(=O)[C@H](CC(C)C)NC(=O)[C@@H](Cc1c[nH]c2ccccc12)NC(=O)[C@H](Cc1ccc(O)cc1)NC(=O)[C@H](CO)NC(=O)[C@H](Cc1cccc2ccccc12)NC(=O)[C@H](Cc1ccccc1)NC(=O)N1CCOCC1 [Compound 237, (2-9)[N-(alpha-Morpholinocarbonyl)-Phe^2-1-Nal^3 -D-Trp^6 -Pro^9 NHEt]LHRH] ({Morpholide-CO}-F[1Nal]SY[dW]LRP-NHEt) |  | 
13 | 0.251 nM | CCNC(=O)N[C@@H](Cc1ccccc1)C(=O)N[C@H](Cc1cccc2ccccc12)C(=O)N[C@@H](CO)C(=O)N[C@@H](Cc1ccc(O)cc1)C(=O)N[C@H](Cc1c[nH]c2ccccc12)C(=O)N[C@@H](CC(C)C)C(=O)N[C@@H](CCCNC(=N)N)C(=O)N1CCC[C@H]1C(=O)NCC [Compound 238, (2-9)[N-(alpha-Ethylaminocarbonyl)-Phe^2 -D-1-Nal^3 -D-Trp^6 -Pro^9 NHEt]LHRH] ({NHEt-CO}-F[d1Nal]SY[dW]LRP-NHEt) |  | 
14 | 0.832 nM | CCNC(=O)N[C@@H](Cc1ccccc1)C(=O)N[C@@H](Cc1cccc2ccccc12)C(=O)N[C@@H](CO)C(=O)N[C@@H](Cc1ccc(O)cc1)C(=O)N[C@H](Cc1c[nH]c2ccccc12)C(=O)N[C@@H](CC(C)C)C(=O)N[C@@H](CCCNC(=N)N)C(=O)N1CCC[C@H]1C(=O)NCC [Compound 239, (2-9)[N-(alpha-Ethylaminocarbonyl)-Phe^2-1-Nal^3 -D-Trp^6 -Pro^9 NHEt]LHRH] ({NHEt-CO}-F[1Nal]SY[dW]LRP-NHEt) |  | 
15 | 0.0132 nM | CC(C)C[C@H](NC(=O)[C@@H](CCCCNC(=O)c1cccnc1)NC(=O)[C@H](Cc1ccccc1)NC(=O)[C@H](CO)NC(=O)[C@@H](Cc1cccc2ccccc12)NC(=O)CCc1ccc(F)cc1)C(=O)N[C@@H](CCCCNC(C)C)C(=O)N1CCC[C@H]1C(=O)N[C@H](C)C(N)=O [Compound 252, (3-10)[N-(3-(4-Fluorophenyl)propionyl)-D-1-Nal^3 -Phe^5 -D-Lys^6 (N-epsilon-nicotinyl)-Lys^8 (N-epsilon-isopropyl)-D-Ala^10]LHRH] ({Propanoyl(3-(4-F-phenyl))}-[d1Nal]SF[dK](Nicotinoyl)L[Lys(iPr)]P[dA]-NH2) |  | 
16 | 0.0151 nM | CC(C)C[C@H](NC(=O)[C@@H](CCCCNC(=O)c1cccnc1)NC(=O)[C@H](Cc1ccc(O)cc1)N(C)C(=O)[C@H](CO)NC(=O)[C@@H](Cc1cccc2ccccc12)NC(=O)CCc1ccc(F)cc1)C(=O)N[C@@H](CCCCNC(C)C)C(=O)N1CCC[C@H]1C(=O)N(C)CC(N)=O [Compound 255, N-(3-(4-Fluorophenyl)propionyl)-D-1-Nal-Ser-NMeTyr-D-Lys(N-epsilon-nicotinyl)-Leu-Lys(N-epsilon-isopropyl)-Pro-SarNH2] ({Propanoyl(3-(4-F-phenyl))}-[d1Nal]S[NMeY][dK](Nicotinoyl)L[Lys(iPr)]P[Sar]-NH2) |  | 
